Drawing on US7528138B2, “Pyrazolo[1,5-a]pyrimidines useful as inhibitors of protein kinases” (Vertex Pharmaceuticals Incorporated, priority 2004, dated 2009), this text covers Ki for 3 compounds.

Experiment [1] has as its target T1, JAK3 (Homo sapiens, UniProt P52333).
T1 sequence (P52333 1-1124): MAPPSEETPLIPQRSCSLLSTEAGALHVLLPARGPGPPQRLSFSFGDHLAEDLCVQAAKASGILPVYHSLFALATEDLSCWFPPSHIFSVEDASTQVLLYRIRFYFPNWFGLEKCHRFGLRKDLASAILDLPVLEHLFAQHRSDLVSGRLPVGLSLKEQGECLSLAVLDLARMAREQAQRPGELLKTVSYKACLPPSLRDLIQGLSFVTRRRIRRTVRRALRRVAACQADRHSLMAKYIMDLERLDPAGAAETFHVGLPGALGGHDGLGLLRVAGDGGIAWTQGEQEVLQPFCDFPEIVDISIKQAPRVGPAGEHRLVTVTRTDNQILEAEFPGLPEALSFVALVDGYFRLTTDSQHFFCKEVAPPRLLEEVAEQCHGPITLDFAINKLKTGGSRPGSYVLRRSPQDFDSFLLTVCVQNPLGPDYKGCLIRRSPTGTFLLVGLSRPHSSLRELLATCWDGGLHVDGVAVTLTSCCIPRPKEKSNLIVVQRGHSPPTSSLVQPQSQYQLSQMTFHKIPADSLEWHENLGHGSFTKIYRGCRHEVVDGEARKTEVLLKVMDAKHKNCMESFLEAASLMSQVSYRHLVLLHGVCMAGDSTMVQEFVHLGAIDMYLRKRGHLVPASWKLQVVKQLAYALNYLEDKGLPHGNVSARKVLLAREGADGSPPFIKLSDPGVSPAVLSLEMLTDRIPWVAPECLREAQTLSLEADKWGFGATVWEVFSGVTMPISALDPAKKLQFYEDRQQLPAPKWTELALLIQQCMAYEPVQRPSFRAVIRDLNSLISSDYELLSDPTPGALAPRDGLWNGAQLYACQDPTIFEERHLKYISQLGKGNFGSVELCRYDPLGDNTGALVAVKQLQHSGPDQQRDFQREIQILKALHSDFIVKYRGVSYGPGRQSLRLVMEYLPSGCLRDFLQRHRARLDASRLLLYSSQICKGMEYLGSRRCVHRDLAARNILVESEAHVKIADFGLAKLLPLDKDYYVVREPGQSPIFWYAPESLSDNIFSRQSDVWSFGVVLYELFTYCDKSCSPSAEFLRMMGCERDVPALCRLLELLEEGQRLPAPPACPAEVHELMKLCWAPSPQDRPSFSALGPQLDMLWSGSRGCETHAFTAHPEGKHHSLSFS
Put plainly: JAK3 Inhibition Assay, 33P incorporation. Type of experiment: biochemical. The following applies: enzyme inhibition data (Ki), Table 11. The gist of the method:
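33P incorporation into 1 μM poly(Glu)4Tyr was counted after TCA stop and glass fiber filtration. The 20 min reaction ran at 25 °C with 1 nM JAK3 and 5 μM ATP (200 uCi/μmole). Buffer was 100 mM HEPES pH 7.4, 10 mM MgCl2, 25 mM NaCl, 1 mM DTT, 0.01% BSA.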

In experiment [2] the target is T2, Aurora-2 (Homo sapiens, UniProt O14965).
T2 sequence (O14965 1-403): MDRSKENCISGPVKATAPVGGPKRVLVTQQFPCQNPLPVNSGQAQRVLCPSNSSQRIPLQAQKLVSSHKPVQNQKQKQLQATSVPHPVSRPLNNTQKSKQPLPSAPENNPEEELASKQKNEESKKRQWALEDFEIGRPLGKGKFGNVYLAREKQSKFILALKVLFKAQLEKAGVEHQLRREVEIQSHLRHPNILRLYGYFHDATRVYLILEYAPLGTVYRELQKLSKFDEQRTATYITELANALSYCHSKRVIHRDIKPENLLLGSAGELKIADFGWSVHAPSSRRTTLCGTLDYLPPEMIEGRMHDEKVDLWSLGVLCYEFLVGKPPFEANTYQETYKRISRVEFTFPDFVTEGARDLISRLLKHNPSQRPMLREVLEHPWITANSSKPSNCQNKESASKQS
Put plainly: Aurora-A (Aurora-2) Inhibition Assay, coupled enzyme assay. Type of experiment: biochemical. Conditions: enzyme inhibition data (Ki), Table 11; read-out: AurA Ki. The gist of the method: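 Coupled pyruvate kinase/lactate dehydrogenase assay following NADH, pH 7.5 Hepes, 40 nM Aurora-2, 400 μM ATP and 570 μM Kemptide at 30 °C. Compound (top final typically 7.5 μM) preincubated 10 min; initial rates over 10 min; IC50 and Ki by non-linear regression.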

As a reminder, the Ki is a measure of affinity in units of concentration, obtained from inhibition or displacement.

For the compound `CNCCCN(C)C(=O)c1cccc(-c2cnc3c(-c4ccccn4)c(N)nn3c2)c1` [Compound V-190], the Ki in experiment [1] and in experiment [2] was 500 to 5000 nM in each case.

In the case of `CNc1cc(-c2c(N)nn3cc(-c4ccncc4)cnc23)ncn1` [Compound V-181], the inhibitory constant (Ki) in experiment [1] and in experiment [2] was less than 500 nM each time.

Regarding `Nc1nn2cc(C#CCO)cnc2c1-c1ccccn1` [Compound V-238], the Ki in experiment [1] and in experiment [2] was 500 to 5000 nM throughout.
